Read-outs that look alike come from different tables or passages of the source.
Experiments:
[1] = test system: scopolamine-induced pupillary dilatation in rats; experiment: Pupil diameter measurement in rats (Table 6); type: in vivo, Male Wistar rats
Method: (§1) 15 minutes before observation. Under these conditions, which were identical to those used in the learning experiments described in Example 2, changes in salivation and pupil diameter were measured. Salivation was measured by placing a piece of folded filter paper in the rat's mouth and measuring the diameter of the blot in mm after 1 minute. Pupil diameter was measured using a magnifying glass and graticule under normal lighting conditions. For both measures, comparisons were made between control and drug-treated groups using a Student's T-test on independent samples.
(§2) Groups of 6 animals were used.

[2] = test system: scopolamine-induced deficit in rats; experiment: Light-dark box memory test in rats, sub-acute dosing: pre-training, pre-training and pre-retest, or four pre-treatments and before training and retest (Table 5); type: in vivo, Male Wistar rats
Method: (§3) Male Wistar rats obtained from Charles River were used. They were housed under controlled conditions (temperature 21±2 deg. C., humidity approx. 50%, 12 hour light/dark cycle, food and water ad lib) for one week before use. On the day before test the rats were permanently housed in groups of six. Food and water were supplied ad lib. On the test day, animals were weighed and then dosed either 30 minutes before test (midazolam), one hour before test (compound A) or immediately after test.
In the sub-acute dosing regimen (see `Procedure`) the rats, housed as above, received six doses of drug or vehicle by the oral route, each 24 hours apart.
(§4) All drugs were dissolved or suspended in 0.25% (w/v) aqueous celacol, and administered orally (by gavage), i.p. or s.c. The dose volume was 5 ml/kg for all routes.
(§5) An identical apparatus to that described in Example 1 was used, except that the smaller box measured 370 mm×260 mm×190 mm.
(§6) This consisted of training as described for mice under section (d) of Example 1.
The procedure was identical with that described above, except that seven groups of rats received compound A or control pre-treatment as 6 oral doses each 24 hours apart, as follows.
Training took place 1 hour after the fifth dose i.e. on day 5. […] The usual retest was performed 24 hours later (on day 6), one hour after the sixth oral treatment.
(§7) This was as described under section (e) of Example 1.
The mean latency to enter the dark box±standard error of the mean was calculated from a group of 24 animals (controls in first block) or 12 animals (all other treatments). For a given treatment, figures in the columns labelled `Day 5` and `Day 6` show the mean latencies taken from the same group of animals. The difference between data obtained on the two days is illustrated by showing the % decrease, and the data compared using the Mann-Whitney U-test.

scopolamine effect = details: cited from earlier work; for Reversal of the scopolamine effect: screen for nootropic compounds
[3] = test system: scopolamine-induced deficit in mice; experiment: Modified light-dark box memory test in mice, scopolamine-induced deficit, drug given pre-training (Table 1); type: in vivo, Male albino CD-1 mice; details: for Mean latency Day 1 / Mean latency Day 2: ± SEM
Method: (§8) Male albino CD-1 mice obtained from Charles River were used. They were housed under controlled conditions (temperature 21±2 deg. C., humidity approx. 50%, 12 hour light/dark cycle, food and water ad lib) for one week before use. On the day before test, the mice were housed in groups of six in polythene boxes in the laboratory and marked for identification. Food and water were supplied ad lib. On the test day, animals were weighed and then dosed either 30 minutes before test (piracetam, ondansetron) one hour before test (compound A) or immediately after test.
All drugs were dissolved or suspended in 0.25% (w/v) aqueous celacol, and administered orally (by gavage), i.p. or s.c. The dose volume was 10 ml/kg for all routes.
(§9) The apparatus consisted of two boxes with an opening 90 mm×60 mm at floor level between them. A plastic door was used to close the opening when required. The smaller box (290 mm×120 mm×120 mm high) was made of opaque plastics, open at the top to allow illumination by normal laboratory lighting. The larger box (305 mm square×280 mm high) was enclosed apart from the single opening.
(§10) This consisted of training, with retest 24 hours later. During training, animals were placed individually in the open box facing away from the end with the opening. After a period of exploration, they usually entered the dark box and the latency to entry in seconds was noted. The door to the dark box was closed, and after 30 seconds had elapsed, the animal was removed gently and returned to the holding box. Twenty-four hours later, an identical procedure was used, except that the session ended as soon as the animal had entered the dark box. The latency was again noted. During the interval, the animals were not handled, and were disturbed as little as possible. Each animal was used once only.
(§11) Test drugs or control fluids were given before or immediately after the training session.
Group comparisons were made between latencies to enter the dark compartment on the first and second occasions. For both training and retest occasions, comparisons were made between vehicle and treatment groups. […] The difference between latencies on the two occasions is presented as % decrease on Day 2 compared with Day 1.
(§12) The mean latency to enter the dark box±standard error of the mean was calculated from a group of 12 animals. For a given treatment, figures in the columns labelled `Day 1` and `Day 2` show the mean latencies taken from the same group of animals. The difference between data obtained on the two days is illustrated by showing the % decrease, and the data compared using the Mann-Whitney U-test; NS indicates a p value>0.1.

[4] = test system: scopolamine-induced deficit in mice; experiment: Modified light-dark box memory test in mice, scopolamine-induced deficit, drug given immediately post-training (Table 2); type: in vivo, Male albino CD-1 mice; details: for Mean latency Day 1 / Mean latency Day 2: ± SEM
Method: as §8
[…] The dose volume was 10 ml/kg for all routes.
as §9, §10, §11
Group comparisons were made between latencies to enter the dark compartment on the first and second occasions. For both training and retest occasions, comparisons were made between vehicle and treatment groups. The distribution of latencies was skewed on both learning and retest trials (data not shown), so the non-parametric Mann-Whitney U-test was used. The difference between latencies on the two occasions is presented as % decrease on Day 2 compared with Day 1.
as §12

[5] = test system: scopolamine-induced dry mouth in rats; experiment: Salivation measurement in rats (Table 6); type: in vivo, Male Wistar rats; details: scopolamine, vehicle-pretreated rats; p<0.01
Method: as §1, §2

[6] = test system: scopolamine-induced deficit in rats; experiment: Light-dark box memory test in rats, scopolamine-induced deficit, single dose pre-training (Tables 3 and 4); type: in vivo, Male Wistar rats; details: for Mean latency Day 1 / Mean latency Day 2: ± SEM; for Effect on expected decrease in latency on retest: scopolamine 0.1 mg/kg
Method: as §3, §4, §5, §6, §11, §7

[7] = isethionate salt, cited from earlier work
[8] = scopolamine 0.1 mg/kg s.c. + celacol days 1-6, ± SEM
[9] = scopolamine 1 mg/kg s.c. + celacol
[10] = scopolamine 1 mg/kg s.c. + saline (piracetam experiment)
[11] = scopolamine 1 mg/kg s.c. + saline
[12] = scopolamine 0.1 mg/kg s.c. + celacol (Table 3)
[13] = scopolamine 0.1 mg/kg s.c. + saline (Table 4)
[14] = saline s.c. + midazolam 0.5 mg/kg i.p.
[15] = scopolamine 0.1 mg/kg s.c. + midazolam 0.5 mg/kg i.p.
[16] = saline s.c. + piracetam 2000 mg/kg i.p.
[17] = scopolamine 1 mg/kg s.c. + piracetam 2000 mg/kg i.p.
[18] = saline s.c. + piracetam 2000 mg/kg i.p. post-training
[19] = scopolamine 1 mg/kg s.c. + piracetam 2000 mg/kg i.p. post-training
[20] = scopolamine 1 mg/kg s.c. + ondansetron 0.01 ug/kg i.p.
[21] = scopolamine 1 mg/kg s.c. + ondansetron 1.0 ug/kg i.p.
[22] = scopolamine 1 mg/kg s.c. + ondansetron 100 ug/kg i.p.

SMILES: CN1[C@@H]2C[C@@H](OC(=O)[C@H](CO)c3ccccc3)C[C@H]1[C@@H]1O[C@@H]12 [Scopolamine]
- Mean pupil diameter ([1]; celacol p.o. + scopolamine 0.1 mg/kg s.c., ± SEM): 22.8 ± 1.65 mm × 10
- Effect on pupil diameter ([1]; scopolamine, vehicle-pretreated rats, p<0.01): significantly increased pupil diameter
- Diff. between days, % ([2]; scopolamine 0.1 mg/kg s.c. + celacol days 1-6, p NS): -3%
- Mean latency Day 5 [2, 8]: 33.5 ± 2.2 s
- Mean latency Day 6 [2, 8]: 34.4 ± 2.5 s
- Effect on expected decrease in mean latency ([2]; scopolamine 0.1 mg/kg, vehicle-treated rats): reversed by scopolamine
- Effect on memory (scopolamine effect; given before or immediately after a learning trial): can abolish the memory
- Difference between days, % Decrease ([3]; scopolamine 1 mg/kg s.c. + celacol, p NS): -10%
- Mean latency Day 1 [3, 9]: 18.8 ± 1.8 s
- Mean latency Day 2 [3, 9]: 20.7 ± 2.3 s
- Difference between days, % Decrease ([3]; scopolamine 1 mg/kg s.c. + saline (ondansetron experiment), p NS): -2%
- Mean latency Day 1 ([3]; scopolamine 1 mg/kg s.c. + saline (ondansetron experiment)): 16.5 ± 1.3 s
- Difference between days, % Decrease ([3]; scopolamine 1 mg/kg s.c. + saline (piracetam experiment), p NS): -27%
- Mean latency Day 1 [3, 10]: 18.9 ± 1.4 s
- Mean latency Day 2 [3, 10]: 24.0 ± 2.5 s
- Effect on expected decrease in latency on retest ([3]; scopolamine 1 mg/kg, vehicle-treated mice): abolished this effect
- Difference between days, % Decrease ([4]; scopolamine 1 mg/kg s.c. + saline, p (0.07, up)): -36%
- Mean latency Day 1 [4, 11]: 19.5 ± 2.3 s
- Mean latency Day 2 [4, 11]: 26.5 ± 2.7 s
- Effect on salivation [5]: reduced salivation
- Difference between days, % Decrease ([6]; scopolamine 0.1 mg/kg s.c. + celacol (Table 3), p NS): 0%
- Mean latency Day 1 [6, 12]: 44.4 ± 4.3 s
- Mean latency Day 2 [6, 12]: 44.5 ± 3.7 s
- Difference between days, % Decrease ([6]; scopolamine 0.1 mg/kg s.c. + saline (Table 4), p NS): -16%
- Mean latency Day 1 [6, 13]: 34.4 ± 5.2 s
- Mean latency Day 2 [6, 13]: 39.8 ± 4.5 s
- Effect on expected decrease in latency on retest ([6]; vehicle-treated rats (Table 3)): reversed this effect
- Effect on expected decrease in latency on retest ([6]; vehicle-treated rats (Table 4)): prevented this effect

SMILES: Nc1nnc(-c2cccc(Cl)c2Cl)c(N)n1 [3,5-diamino-6-(2,3-dichlorophenyl)-1,2,4-triazine isethionate]
- Solubility [7]: good solubility
- Solubility ([7]; listed as The salt with isethionic acid): particularly good solubility

SMILES: Cc1ncc2n1-c1ccc(Cl)cc1C(c1ccccc1F)=NC2 [Midazolam]
- Reversal of scopolamine-induced deficit ([6]; midazolam 0.5 mg/kg i.p.): did not reverse the scopolamine-induced deficit
- Difference between days, % Decrease ([6]; saline s.c. + midazolam 0.5 mg/kg i.p., p (0.09)): 29%
- Mean latency Day 1 [6, 14]: 39.9 ± 4.9 s
- Mean latency Day 2 [6, 14]: 28.2 ± 2.7 s
- Difference between days, % Decrease ([6]; scopolamine 0.1 mg/kg s.c. + midazolam 0.5 mg/kg i.p., p NS): 9%
- Mean latency Day 1 [6, 15]: 37.0 ± 4.0 s
- Mean latency Day 2 [6, 15]: 33.6 ± 3.4 s

SMILES: NC(=O)CN1CCCC1=O [Piracetam]
- Reversal of the scopolamine effect (scopolamine effect): positive results
- Day 2 latency versus scopolamine-treated control animals ([3]; piracetam 2000 mg/kg i.p. + scopolamine, pre-training, p<0.05): significantly different
- Difference between days, % Decrease ([3]; saline s.c. + piracetam 2000 mg/kg i.p., p <0.01): 44%
- Mean latency Day 1 [3, 16]: 21.4 ± 4.7 s
- Mean latency Day 2 [3, 16]: 12.1 ± 1.2 s
- Difference between days, % Decrease ([3]; scopolamine 1 mg/kg s.c. + piracetam 2000 mg/kg i.p., p NS*): 27%
- Mean latency Day 1 [3, 17]: 19.1 ± 2.4 s
- Mean latency Day 2 [3, 17]: 13.9 ± 1.8 s
- Difference between days, % Decrease ([4]; saline s.c. + piracetam 2000 mg/kg i.p. post-training, p <0.05): 28%
- Mean latency Day 1 [4, 18]: 18.8 ± 2.0 s
- Mean latency Day 2 [4, 18]: 13.5 ± 1.7 s
- Difference between days, % Decrease ([4]; scopolamine 1 mg/kg s.c. + piracetam 2000 mg/kg i.p. post-training, p NS*): 6%
- Mean latency Day 1 [4, 19]: 19.2 ± 1.8 s
- Mean latency Day 2 [4, 19]: 18.0 ± 1.8 s

SMILES: Cc1nccn1CC1CCc2c(c3ccccc3n2C)C1=O (stereo not shown) [Ondansetron, 1,2,3,9-tetrahydro-9-methyl-3-[(2-methyl-1H-imidazol-1-yl)methyl]-4H-carbazol-4-one]
- Reversal of the scopolamine effect (scopolamine effect): positive results
- Difference between days, % Decrease ([3]; scopolamine 1 mg/kg s.c. + ondansetron 0.01 ug/kg i.p., p NS): -28%
- Mean latency Day 1 [3, 20]: 15.6 ± 1.8 s
- Mean latency Day 2 [3, 20]: 20.0 ± 1.9 s
- Difference between days, % Decrease ([3]; scopolamine 1 mg/kg s.c. + ondansetron 1.0 ug/kg i.p., p NS): -5%
- Mean latency Day 1 [3, 21]: 14.3 ± 1.4 s
- Mean latency Day 2 [3, 21]: 14.9 ± 1.2 s
- Difference between days, % Decrease ([3]; scopolamine 1 mg/kg s.c. + ondansetron 100 ug/kg i.p., p <0.05): 28%
- Mean latency Day 1 [3, 22]: 16.3 ± 1.9 s
- Mean latency Day 2 [3, 22]: 11.8 ± 1.5 s

— patent US5866597A, “Use of triazine compounds for the treatment of memory and learning disorders” (Glaxo Wellcome Inc., priority 1993, dated 1999)
